Tested on: Antibiotic-Induced Colitis in Hamsters
Test: Antibiotic-induced colitis in hamsters (in vivo), survival
Design: species or system Syrian hamsters
Settings: given orally at 20 micromoles per kilogram; colitis induced by 175 mg/kg clindamycin intraperitoneally; first dose about seven hours after injection, then twice a day for four more days; Hazard Ratio >1.0 = therapy prolongs survival versus vehicle
Experimental: Antibiotic-Induced Colitis in Hamsters (In Vivo):
Male Syrian hamsters (LUG), weighing 80 to 120 g, were each given a single dose of 175 mg/kg of clindamycin-phosphate or of clindamycin-hydrochloride intraperitoneally, to induce colitis. Approximately seven hours after injection, the animals wer given the test compound orally or intraperitoneally and the therapy was continued twice a day for a period of four more days. The effect of the therapy was measured by use of the Hazard Ratio, which is the ratio of the mortality of the animals treated with the test compound contained in a vehicle to the mortality of the animals treated with the vehicle containing none of the test compound. The mortality was determined for the test compound-treated groups and for the vehicle-treated groups, respectively, twice daily, and was evaluated by comparing the survival curves of each group. The Kaplan-Meier estimate of the survival curve was calculated for each group and the Mantel-Cox (logrank) test was used to compare the survival curve of each test compound-treated (therapy) group to that of the corresponding vehicle control group.

SMILES: CCCCCCCCOC(=O)C1CCc2cc(C(C)=O)c(OCCCCCOc3ccc(C(C)=O)c(O)c3CCC)cc2O1 (racemic) [racemic 6-acetyl-7-[5-(4-acetyl-3-hydroxy-2-propylphenoxy)pentyloxy]-3,4-dihydro-2H-1-benzopyran-2-carboxylic acid n-octyl ester]
- Hazard Ratio: 2.0

— patent EP0336068A1, “Phenoxyalkoxy-3,4-dihydro-2H-1-benzopyran derivatives” (F. HOFFMANN-LA ROCHE AG, priority 1988, dated 1989)
